Results taken from patent publication US8889131B2, “NOTCH inhibition in the treatment and prevention of a metabolic disease or disorder and cardiovascular complications thereof” (The Brigham and Women's Hospital, Inc., priority 2009, dated 2014).

Assays:
Type in all cases: cell-based, mouse
[1] = system: Dll4-mediated Notch signaling; experiment: MCP-1 expression in differentiated 3T3-L1 adipocytes
Procedure: 3T3-L1 preadipocytes (American Type Culture Collection) were maintained in Dulbecco's modified Eagle's medium (DMEM) (Gibco) containing 10% FBS. Differentiation of 3T3-L1 preadipocytes to mature adipocytes was performed as previously described and used as differentiated 3T3-L1 adipocytes at day 10 after the induction of differentiation. Differentiation was initiated two days after cells were confluent by adding fresh medium containing 0.5 mM isobutylmethylxanthine, 1 μM dexamethasone, and 10 μg/ml insulin. After two days, the methylisobutylxanthine and dexamethasone were removed and insulin was maintained for two additional days. On day 4 and thereafter, DMEM containing only 10% FBS was replaced every two days. […]
Applicants transfected siRNA against mouse Dll4 (Dharmacon), plasmid encoding mouse Dll4 (GeneCopoeia), RBP-Jκ reporter (SABiosciences), and Notch3 intracellular domains (N3ICD) to 3T3-L1 adipocytes by electroporation (Nucleofector system; Amaxa) according to the manufacturer's instructions. […] Luciferase activity was determined using a Dual-Luciferase Reporter Assay System (Promega). […]
(§1) Applicants synthesized cDNA from total RNA extracted from tissues and cells. Real-time quantitative RT-PCR was done with a MyiQ single-color real-time PCR detection system (BioRad) and PerfeCTa SYBR Green SuperMix for iQ (Quanta Biosciences). […]

[2] = system: RBP-Jκ reporter; experiment: RBP-Jκ reporter luciferase assay in 3T3-L1 adipocytes; details: 3T3-L1 adipocytes on rDll4-coated plates
Text: (§2) Applicants transfected siRNA against mouse Dll4 (Dharmacon), plasmid encoding mouse Dll4 (GeneCopoeia), RBP-Jκ reporter (SABiosciences), and Notch3 intracellular domains (N3ICD) to 3T3-L1 adipocytes by electroporation (Nucleofector system; Amaxa) according to the manufacturer's instructions. The Dll4-expressing plasmid was also transfected to RAW264.7 cells. N3ICD was a generous gift from Dr. Shigeru Chiba (Department of Clinical and Experimental Hematology, Graduate School of Comprehensive Human Sciences, University of Tsukuba). Applicants transfected 2 μg of siRNA or plasmid to cells and harvested them 48 hours or 24 hours after transfection, respectively. Applicants used 5 μl of RBP-Jκ reporter solution for each transfection. After incubation for 24 hours, cells were seeded to rDll4-coated plates and used for the luciferase assay after 48-hour incubation. Luciferase activity was determined using a Dual-Luciferase Reporter Assay System (Promega). Applicants transfected 5 μg of N3ICD to cells and harvested them 24 hours after transfection.

[3] = system: NF-κB pathway; experiment: NF-κB activation in 3T3-L1 adipocytes (immunoblotting, immunocytochemistry)
Procedure: Differentiated 3T3-L1 adipocytes were starved for 16 hours and then used for in vitro experiments. For blockade Dll4-mediated Notch signaling, Applicants treated 3T3-L1 adipocytes with Dll4 Ab or IgG (10 μg/ml) and γ-secretase inhibitor (DAPT, 10 μM) or DMSO for 24 hours. To activate Dll4-mediated Notch signaling, Applicants seeded 3T3-L1 adipocytes to plates coated with recombinant mouse Dll4 (rDll4) (1 μg/ml), and then harvested cells after 48-hour incubation (Williams, et al., Blood 107:931-939 (2006)). Applicants also used SN50 (25 μg/ml) NF-κB inhibitor to determine the interaction between Notch signaling and the NF-κB pathway.
Differentiated 3T3-L1 adipocytes incubated in rDll4-coated plates were fixed in 4% paraformaldehyde and permeabilized with 0.1% NP40. After blocking with 1% goat serum, cells were incubated with a rabbit anti-p65 antibody (Santa Cruz Biotechnology), followed by an Alexa Fluor 594-conjugated donkey anti-rabbit Ig antibody (Molecular Probes). Nuclei were counterstained with Hoechst 33342 (Sigma). Cells were observed under an ECLIPSE TE2000-U (Nikon) equipped with a mercury illumination system and SPOT RT Camera (Diagnostic Instruments, Inc.).
Lysates prepared from tissues and cells in lysis buffer containing protease inhibitor cocktail (Sigma) and phosphatase inhibitor cocktail (Roche) were separated with SDS-PAGE gels. Applicants used the following antibodies: NF-κB p65 (Santa Cruz Biotechnology), phospho-NF-κB p65 (Rock Land), IK-Bα (Cell Signaling), and β-actin (Sigma).

[4] = system: Dll4-mediated Notch signaling; experiment: M1/M2 gene expression in RAW264.7 cells
Procedure: RAW264.7 cells (American Type Culture Collection) were also maintained in DMEM containing 10% FBS. For blockade of Dll4-mediated Notch signaling, Applicants pre-treated RAW264.7 cells with Dll4 Ab or IgG for 2 hours and then stimulated these cells with 1 ng/ml LPS for 24 hours. LPS stimulation activates the Notch signaling in RAW264.7 cells.
as §2, with “Applicants used 5 μl of RBP-Jκ reporter solution for each transfection. After incubation for 24 hours, cells were seeded to rDll4-coated plates and used for the luciferase assay after 48-hour incubation.” left out, “Applicants transfected 5 μg of N3ICD to cells and harvested them 24 hours after transfection.” left out
as §1

Compound	MCP-1 RNA expression ([1]; differentiated 3T3-L1 adipocytes, blockade of Notch signaling)	RBP-Jκ reporter activity [2]	MCP-1 expression ([1]; 3T3-L1 adipocytes cultured on rDll4-coated dishes)	degradation of IκBα [3]	nuclear translocation of p65 [3]	phosphorylation of NF-κB subunit p65 [3]	anti-inflammatory M2 genes (e.g., IL-10) [4]	expression of pro-inflammatory M1 genes such as IL-1β and iNOS [4]
C[C@H](NC(=O)Cc1cc(F)cc(F)c1)C(=O)N[C@H](C(=O)OC(C)(C)C)c1ccccc1 [DAPT]	produced a similar effect							
rDll4: recombinant mouse Dll4 coated on plates to activate Dll4-mediated Notch signaling		Stimulation	promoted	increased	increased	increased	suppressed	induced expression
